The nature of this series: gradient 5% acetonitrile 3 min, to 50% in 2 min, to 85% in 15 min, held 3 min, 100 µL/min. Conditions: column: Zorbax Extend-C18 2.1 x 50 mm; eluents: water / acetonitrile, 0.1% formic acid. In outline: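 Pure standards were run in mixtures of ~100 molecules by HPLC coupled to a quadrupole time-of-flight mass spectrometer. The column was a Zorbax Extend-C18 (2.1 × 50 mm, 1.8 μm) at 100 μL/min, with water and acetonitrile each containing 0.1% formic acid, in positive and negative ionization mode. Dead and dwell volumes were 40 μL and 900 μL. Retention time was taken from computationally picked adduct peaks, each manually inspected, with data collected over 3 months.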
For the compound `Nc1cc(C2CCN(S(=O)(=O)c3cccc(F)c3)CC2)no1`, the RP-LC retention time came out at 755 s.
As to `Cc1cccc(CC(=O)N2C[C@@H]3C[C@H]2C[C@@H]3NS(=O)(=O)c2cccs2)c1`, the RP-LC retention time is 815 s.
`O=C(Nc1nnc(C2=COCCO2)o1)c1cc2cc([N+](=O)[O-])ccc2s1`: the RP-LC retention time came out at 759 s.
`Cc1nc(C2CCOCC2)n(C2CCN(S(=O)(=O)c3cc(F)cc(F)c3)C2)n1` (stereo not given) gave an RP-LC retention time of 740 s.
In turn, `Cc1ccc(-n2c(N3CCCC(C(=O)NC(C)c4cccnc4)C3)nc3ccsc3c2=O)cc1` (stereo not given) returned an RP-LC retention time of 633 s.
The compound `CCN1C(=O)c2cccnc2Sc2cc(CNC(=O)c3sc(C)nc3C)ccc21` registered an RP-LC retention time of 681 s.
Under `Cc1ccc(-c2nc(NC(=O)CCCOc3ccccc3C)sc2C)cc1` stands 1270 s.
Under `O=C(Nc1nc2ccc(F)cc2s1)c1ccccc1Br` stands 900 s; under `c1ccc(-c2noc(-c3ccccc3OC3CCN(Cc4nccs4)C3)n2)cc1` (stereo not given), 750 s; under `COc1ccc(NC(=O)Cc2c(C)nn(-c3nc(-c4ccccc4)cs3)c2C)cc1`, 1110 s.
`COc1ccc(CCS(=O)(=O)N(Cc2ccsc2)C2CC2)cc1`: the RP-LC retention time was 1000 s.
`Cc1ccc(Cn2nc3ccc(S(=O)(=O)N4CCOCC4)cn3c2=O)cc1` had an RP-LC retention time of 977 s.
`Cc1ccc(-c2nc3nc(C)cc(C)n3c2Nc2ccc(Cl)cc2)cc1` came in with an RP-LC retention time of 786 s.
`CCn1nccc1-c1cccc(-c2noc(C3CC(=O)N(c4cccc(Cl)c4)C3)n2)c1` (stereo not given) displayed an RP-LC retention time of 1090 s.
In turn, `CCCC1OC(c2cc3c(cc2Cl)OCO3)OCC1CC` (stereo not given) yielded an RP-LC retention time of 1070 s.
Take `CC(C)N1C[C@H](O)C[C@H]1c1nnc2n1CCN(C(=O)c1ccc3ccccc3n1)C2`: the RP-LC retention time stood at 586 s.
To `COc1ccc(-c2noc(Cc3nnc(-c4cc(F)cc(F)c4)o3)n2)cc1OC` belongs 924 s; to `CCOC(=O)C(C)NC(=O)NCC(=O)N1CCc2ccccc21` (stereo not given), 696 s.
As to `CCCn1c(-c2cccc(C(=O)NCc3ccc(SC)cc3)c2)nc2cccnc21`, the RP-LC retention time is 874 s.
In the case of `O=C(Nc1ccc(F)cc1)N1CCC(n2c(-c3ccco3)nc3cccnc32)C1` (stereo not given), the RP-LC retention time turned out to be 749 s.
The compound `CCC(=O)N1CCc2c(C(=O)NC(C)C)cccc21` registered an RP-LC retention time of 687 s.
Under `Cc1ccc(-c2cc(-c3nc4c5ccccc5ncn4n3)[nH]n2)c(C)c1` stands 900 s.
As for `CC(C)CCNC(=O)Cn1cccc(-c2nc(-c3ccc(F)cc3)no2)c1=O`, the RP-LC retention time is 860 s.
Under `CC1CCCN(c2ccc(NC(=O)Cc3cccs3)c(C(=O)O)c2)C1` (stereo not given) stands 685 s; under `Cc1oc(C2CCN(C(=O)Nc3ccc(Cl)cc3F)CC2)nc1C(=O)N1CCCCC1`, 885 s.
To `COc1ccc(Nc2c(C(=O)N3CCCC(C)C3)cnc3nc(C)ccc23)cc1` (stereo not given) belongs 650 s.
Regarding `Cc1ccc2c(=O)c(C(=O)N3CCOCC3)cn(CC(=O)NC3CCCCC3)c2n1`, the RP-LC retention time came to 653 s.
`O=C(c1ccc(-c2cccnc2)nc1)N1CCN(c2ccccc2)CC1` had an RP-LC retention time of 663 s.
`COc1ccc2c(c1)C1(CCN(S(=O)(=O)c3cccc(C#N)c3)C1)C(=O)N2C` (stereo not given) registered an RP-LC retention time of 875 s.
As for `CCN1C(=O)c2cccnc2Sc2cc(CNC(=O)c3ccco3)ccc21`, the RP-LC retention time is 701 s.
`Cc1nc(C)c(CCNS(=O)(=O)c2cc(C)c(C)cc2C)s1` showed an RP-LC retention time of 695 s.
In turn, `Cc1ccc(CNC(=O)C2CCCN(c3nc4ccsc4c(=O)n3-c3ccc(C)cc3)C2)cc1` (stereo not given) yielded an RP-LC retention time of 977 s.
The compound `O=C(NC1CCCCC1)C1CCCN(C(=O)c2cc(-c3ccccn3)n[nH]2)C1` (stereo not given) came in with an RP-LC retention time of 659 s.
The compound `CS(=O)(=O)N1CCN(C(=O)c2ccc(-n3cccn3)nn2)CC1` showed an RP-LC retention time of 601 s.
Under `CCOC(=O)CNC(=O)N1CCCC1c1cccc(F)c1` (stereo not given) stands 745 s; under `Cc1c(S(=O)(=O)NCc2cccs2)c(C)n(C)c1-c1nnc(C2CCC2)o1`, 893 s.
`OCCCCc1nccc2c1[nH]c1ccccc12` registered an RP-LC retention time of 628 s.
`COc1ccccc1N1CCN(C(=O)c2cn(-c3cc(N4CCCCC4)ncn3)cn2)CC1`: the RP-LC retention time turned out to be 856 s.
`CC(=O)Nc1nsc(N2CCC(C(=O)N3CCN(c4ccccc4)CC3)CC2)n1` returned an RP-LC retention time of 659 s.
`Cc1nc(-c2nnc(NC(=O)Cn3cnc4c3c(=O)n(C)c(=O)n4C)o2)cs1`: the RP-LC retention time was 569 s.
Under `Cc1ncsc1CN1CC(Oc2ccc(-c3noc(C4CC4)n3)cc2)C1` stands 652 s; under `CCc1ccc(CN2C(=O)CN(S(C)(=O)=O)CC2(C)C(=O)NC2CCCCCCC2)cc1` (stereo not given), 1040 s.
With `O=c1ccn2c(n1)SC(c1ccccc1)C2` (stereo not given), the RP-LC retention time is 655 s.
`CCn1c(=O)c(=O)n(CC(=O)NCCN2CCCCC2)c2cccnc21` displayed an RP-LC retention time of 565 s.
To `Cc1ccc(NC(=O)N2CCC[C@@H]2C(=O)NCc2csc(-c3ccccc3)n2)cc1C` belongs 861 s.
As to `Cc1ccccc1CNC(=O)C1(C)CCN(S(=O)(=O)c2ccc(F)cc2)CC1`, the RP-LC retention time was 925 s.
In turn, `Cc1cc(NC(=O)NCCn2nnc3cc(C(=O)N4CCCC4)ccc32)ccc1Br` gave an RP-LC retention time of 740 s.
As for `COc1ccc(-n2ccc(=O)c(-c3nc(-c4ccccc4Br)no3)n2)cc1`, the RP-LC retention time worked out at 908 s.
Turning to `O=C(c1ccco1)N1CCCC1c1nc(-c2ccc(F)cc2)no1` (stereo not given), the RP-LC retention time is 875 s.
`CS(=O)(=O)N(C1CCOCC1)C1CCN(S(=O)(=O)Cc2ccccc2)CC1` came in with an RP-LC retention time of 779 s.
The compound `Cc1ccc(NC(=O)N2CCC(N3CCN(Cc4ccc(F)cc4)C(=O)C3=O)CC2)cc1F` displayed an RP-LC retention time of 770 s.
Turning to `CC1CCCN(c2ccc(-c3noc(CN4CCN(CC(=O)NC(C)C)CC4)n3)cn2)C1` (stereo not given), the RP-LC retention time came out at 635 s.
Consider `COc1ccc(OC)c(NC(=O)Cn2cccc2-c2nnc(C3CC3)o2)c1`, for which the RP-LC retention time came to 704 s.
In the case of `Cc1ccc(-c2coc(-c3ccc(NC(=O)Cc4cccs4)cc3)n2)c(C)c1`, the RP-LC retention time was 1330 s.
Under `Cc1cc(C(=O)NCc2ccc(Cl)cc2)n(-c2ccccc2)n1` stands 878 s; under `COc1ccc(-n2ccc(=O)c(-c3nc(-c4ccc(Cl)cc4)no3)n2)cc1`, 938 s; under `CCOC(=O)c1[nH]c(C)c(C(=O)C(C)N(CC(C)C)C(=O)c2ccc(Cl)cc2)c1C` (stereo not given), 1080 s.
The compound `CC(C)N1CCN(C(=O)c2cn3ccnc(-c4ccccc4)c3n2)CC1` registered an RP-LC retention time of 602 s.
`COc1ccc2[nH]c(C(=O)NC3CC3)cc2c1`: the RP-LC retention time came to 703 s.
For the compound `COc1ccc(Cl)cc1NC(=O)N1CCN(CCn2cnc3cccnc32)CC1`, the RP-LC retention time stood at 625 s.
As for `O=C(OCc1cccnc1)c1cn(-c2cccc(Cl)c2)c(=O)c2ccccc12`, the RP-LC retention time stood at 813 s.
The compound `O=C(CCc1csc(NC(=O)c2ccc[nH]c2=O)n1)NCC1CCCO1` (stereo not given) returned an RP-LC retention time of 573 s.
As to `CCCCN(C)CCNC(=O)c1cc2cc3ccc(OC)cc3nc2o1`, the RP-LC retention time amounted to 641 s.
The compound `CCOc1ccc2c(n1)CCN(C(=O)NCCOC)C2` returned an RP-LC retention time of 624 s.
For `CCSc1nc2ccc(NS(=O)(=O)c3ccccc3F)cc2s1`, the RP-LC retention time came to 964 s.
Under `CC(C)Cn1c(=O)c(N2CCN(C(=O)NCc3ccc(F)cc3)CC2)nc2ccncc21` stands 668 s.
For `COc1cccc(Oc2nccn3c(=O)n(CC(=O)Nc4cccc(C(F)(F)F)c4)nc23)c1`, the RP-LC retention time stood at 919 s.
For `CCOc1ccccc1NC(=O)Cn1ncc2c(N3CCN(c4ccccn4)CC3)ncnc21`, the RP-LC retention time was 628 s.
For `CCCCNC(=O)Cc1c(C)nn(-c2nc(-c3ccc(F)cc3)cs2)c1C`, the RP-LC retention time was 1070 s.
`CC(=O)c1cccc(NC(=O)CC2COc3ccccc3NC2=O)c1` (stereo not given): the RP-LC retention time turned out to be 676 s.
The compound `CCn1nc(CNC(=O)Cc2ccccc2F)c2ccccc21` gave an RP-LC retention time of 791 s.
`Cn1nc(C(=O)N2CC(N(C3CCOCC3)S(C)(=O)=O)C2)c2ccccc21` gave an RP-LC retention time of 698 s.
With `O=C(c1ccc(Br)cc1)N1CC2C3CCC(O3)C2C1` (stereo not given), the RP-LC retention time amounted to 838 s.
For `Cc1ccc(Nc2nc(N3CCN(c4ncccn4)CC3)nc3c2C(=O)CCC3)cc1`, the RP-LC retention time stood at 1220 s.
In the case of `Cc1ccc2c(c1)C(O)(CC(=O)c1ccc(F)cc1)C(=O)N2` (stereo not given), the RP-LC retention time was 717 s.
In turn, `COc1ccc(S(=O)(=O)N2CCc3c(c(-c4nnc(-c5ccc(F)cc5)o4)nn3C)C2)cc1` came in with an RP-LC retention time of 945 s.
With `O=C(NCc1ccccc1Cl)C1CCN(C(=O)c2sccc2-n2cccc2)CC1`, the RP-LC retention time is 863 s.
Under `COc1ccccc1C1=NN(C(=O)c2ccccc2C)C(c2ccco2)C1` (stereo not given) stands 976 s.
In the case of `Cc1cccn2cc(C(=O)NCc3ccc(Cl)cc3)nc12`, the RP-LC retention time is 704 s.
Under `Cc1ccc(N2CCC(NC(=O)Nc3ccccc3C)C2=O)cc1C` (stereo not given) stands 875 s.

Source of the values: the METLIN SMRT retention time set (Domingo-Almenara et al. 2019).
